Converted amounts (≈) assume the structure as drawn. Like-named read-outs stand apart in the source and are kept apart here.

One data set can be described thus: solubility in water. The format is physicochemical.
For another data set, the system named is prolactin. The data set can be described thus: prolactin content in serum after subcutaneous administration in the male rat. The class given is in vivo. The protocol:
The blood samples had been taken 10 and 30 minutes after administration of the compound, whereas the same dose of a reference antidopaminergic (Sulpiride) studied under the same conditions, multiplies the amount of basic prolactinaemia by a factor of about 10.

In a further data set the target is T1, D2 receptors (Rattus norvegicus, UniProt P61169).
T1 construct: in vitro tests on rat striatum preparations; from tissue; host or cells: rat striatum preparations
Description: displacement of 3H-spiperone, ligand of D2 receptors, in vitro on rat striatum preparations. The format is binding. The conditions noted are these: read-out: inhibiting concentration (50), I.C. 50, relative to 3H-spiperone. The source says: (§1) These tests which consisted of studying the displacement of specific ligands of dopamine receptors by compounds of the invention. The compound in Example I was found, for instance, to have an inhibiting concentration (50), I.C.
On the technique in general: Loss of bound radioactivity is the signal in a displacement assay; it reports binding, not function.

A further data set deals with D1 receptors. The data set can be described thus: displacement of 3H-piflutixol, ligand of D1 receptors, in vitro on rat striatum preparations. The class given is binding.
Excerpt: as §1

Data set [1] concerns reserpine-induced motor depression and ptosis. Description: reserpine model of behavioural depression. The class given is in vivo, mice or rats. The protocol: In view of this activating property of the compounds of the invention, animal models of behavioural depression were used to investigate a possible antidepressive effect. For example, mice pre-treated with reserpine (5 mg/kg) intraperitoneally 18 hours before the test, or rats receiving reserpine in the nucleus accumbens 1 μg/24 h) were tested.

The nature of another data set: acute toxicity in mice. The conditions noted are these: mouse, in vivo. The protocol: In the course of this pharmacological research a toxicological study of the most preferred compound was carried out.

T1 sequence (P61169 whole entry): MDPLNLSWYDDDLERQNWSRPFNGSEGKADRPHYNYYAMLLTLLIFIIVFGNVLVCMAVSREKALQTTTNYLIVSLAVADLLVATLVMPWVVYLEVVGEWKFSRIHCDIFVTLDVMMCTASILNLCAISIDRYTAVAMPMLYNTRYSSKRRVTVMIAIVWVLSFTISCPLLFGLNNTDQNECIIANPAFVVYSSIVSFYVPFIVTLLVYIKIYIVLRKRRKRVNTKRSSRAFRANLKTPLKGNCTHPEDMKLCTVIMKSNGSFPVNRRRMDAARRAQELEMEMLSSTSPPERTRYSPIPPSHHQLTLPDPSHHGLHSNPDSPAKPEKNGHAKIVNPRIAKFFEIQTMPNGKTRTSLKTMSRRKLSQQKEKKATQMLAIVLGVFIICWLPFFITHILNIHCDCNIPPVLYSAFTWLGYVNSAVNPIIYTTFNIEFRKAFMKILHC

For `COc1cc(NC2=NCCO2)c(Cl)cc1C(=O)NCC1CCCN1CC1CC1` (stereo not shown) [XL, N-(1-CYCLOPROPYLMETHYL 2-PYRROLIDINYLMETHYL) 2-METHOXY 4-[(4,5-DIHYDRO 2-OXAZOLYL) AMINO] 5-CHLORO BENZAMIDE], in “solubility in water” (monohydrochloride prepared for immediate use, read-out: soluble in water, monohydrochloride), the solubility is approximately 320 mg/mL (≈ 786 mM).
In the case of `C=CCOc1cc(NC2=NCCN2)c(Cl)cc1C(=O)NCCN(CC)CC` [XXXIII, N-(DIETHYLAMINO ETHYL) 2-ALLYLOXY 4-[(1-H 4,5 DIHYDRO 2-IMIDAZOLYL) AMINO] 5-CHLORO BENZAMIDE], the solubility was 200 mg/mL (≈ 508 mM) in “solubility in water” (hydrochloride prepared for immediate use, read-out: soluble in water, hydrochloride) and 10 mg/mL (≈ 25.4 mM) in “solubility in water” (the product (base), read-out: insoluble in water).
For the compound `CCN1CCCC1CNC(=O)c1cc(S(N)(=O)=O)ccc1OC` (stereo not shown) [Sulpiride, reference compound], the “factor by which the amount of basic prolactinaemia is multiplied” value in the data set on prolactin (same dose (1 mg/kg) and same conditions) is given as “about 10”.
As for `CCN(CC)CCNC(=O)c1cc(Cl)c(NC2=NCCN2)cc1OC` [Example I, N-[(DIETHYL AMINO) ETHYL] 2-METHOXY 4-[(1-H 4,5-DIHYDRO 2-IMIDAZOLYL) AMINO] 5-CHLORO BENZAMIDE], at D2 receptors, the IC50 was more than 100 µM. The “displacement of 3H-piflutixol” value in the data set with D1 receptors is given as “no displacement”. Further, in the data set with prolactin (1 mg/kg s.c., eight rats, 10 and 30 minutes after administration), the “increase in prolactin content in serum” value was “no increase in prolactin content”. In addition, the “activity compared with imipramine against reserpine” value in data set [1] (0.1 mg/kg s.c. versus imipramine 30 mg/kg i.p.) was “as active at that dose as 30 mg/kg of imipramine”. Besides, the “effect on reserpine-induced motor depression and ptosis” value in data set [1] (0.1 mg/kg s.c., reserpine 5 mg/kg i.p. (mice) or in nucleus accumbens 1 μg/24 h (rats)) is “counteracts motor depression and ptosis”. Besides, the LD50 in the data set “acute toxicity in mice” (ip, read-out: LD 50 i.p.) was in the range of 37.7 to 40.8 mg/kg; in the data set “acute toxicity in mice” (iv, read-out: LD 50 i.v.), 12.8 to 14.4 mg/kg; in “acute toxicity in mice” (po, per os, read-out: LD 50 per os), 165 to 180 mg/kg; in “acute toxicity in mice” (sc, read-out: LD 50 s.c.), 52 to 54 mg/kg.

These data come from US4835172A, “Novel benzamides, intermediates and process for the preparation and therapeutic use thereof” (Societe D'Etudes Scientifiques et Industrielles de …, priority 1985, dated 1989).
